Data on 20 compounds can be found in patent publication US10556884B2, “Pesticidally active heterocyclic derivatives with sulphur containing substituents” (SYNGENTA PARTICIPATIONS AG, priority 2015, dated 2020).

Data set [1] has as its system Myzus persicae (Green Peach Aphid). In words: Myzus persicae feeding/contact activity, sunflower leaf discs. The format is in vivo. The conditions noted are these: foliar, 144 h. The procedure: Example B5: Myzus persicae (Green Peach Aphid): Feeding/Contact Activity
Sunflower leaf discs were placed onto agar in a 24-well microtiter plate and sprayed with aqueous test solutions prepared from 10′000 ppm DMSO stock solutions. After drying, the leaf discs were infested with an aphid population of mixed ages. The samples were assessed for mortality 6 days after infestation.

Data set [2] shares this test system. In words: Myzus persicae systemic activity, pea seedlings. The format is in vivo. The conditions noted are these: 144 h, test rate of 24 ppm, 6 days after placing seedlings into test solutions.
For data set [3], the system named is Thrips tabaci (Onion Thrips). As to the kind of experiment: Thrips tabaci feeding/contact activity, sunflower leaf discs. The format is in vivo. Conditions: foliar, 144 h, application rate of 200 ppm, population of mixed ages, 6 days after infestation. The method, then: Example B11: Thrips tabaci (Onion Thrips) Feeding/Contact Activity
Sunflower leaf discs were placed on agar in 24-well microtiter plates and sprayed with aqueous test solutions prepared from 10′000 ppm DMSO stock solutions. After drying the leaf discs were infested with a thrips population of mixed ages. The samples were assessed for mortality 6 days after infestation.

Data set [4] concerns Diabrotica Balteata (Corn Root Worm). As to the kind of experiment: Diabrotica balteata L2 larvae on maize sprouts. The conditions noted are these: 96 h, read-out: effect in at least one of the two categories (mortality or growth inhibition); for percent effect (mortality or growth inhibition) at 200 ppm: application rate of 200 ppm, L2 larvae, 4 days after infestation. The format is in vivo. The procedure: Example B2: Diabrotica Balteata (Corn Root Worm)
Maize sprouts placed onto an agar layer in 24-well microtiter plates were treated with aqueous test solutions prepared from 10′000 ppm DMSO stock solutions by spraying. After drying, the plates were infested with L2 larvae (6 to 10 per well). The samples were assessed for mortality and growth inhibition in comparison to untreated samples 4 days after infestation.

The test system of data set [5] is Plutella xylostella (Diamond Back Moth). In words: Plutella xylostella L2 larvae on artificial diet. The format is in vivo. The conditions noted are these: 120 h, read-out: effect in at least one of the two categories (mortality or growth inhibition); for percent effect (mortality or growth inhibition) at 200 ppm: application rate of 200 ppm, L2 larvae, 5 days after infestation. The procedure:
Example B7: Plutella xylostella (Diamond Back Moth)
24-well microtiter plates with artificial diet were treated with aqueous test solutions prepared from 10′000 ppm DMSO stock solutions by pipetting. After drying, the plates were infested with L2 larvae (10 to 15 per well). The samples were assessed for mortality and growth inhibition in comparison to untreated samples 5 days after infestation.

The subject of data set [6] is Spodoptera littoralis (Egyqptian Cotton Leaf Worm). In words: Spodoptera littoralis L1 larvae on sprayed cotton leaf discs. The format is in vivo. Conditions: foliar, 72 h, read-out: control (mortality, anti-feeding effect, growth inhibition). The procedure: Example B8: Spodoptera littoralis (Egyqptian Cotton Leaf Worm)
Cotton leaf discs were placed onto agar in 24-well microtiter plates and sprayed with aqueous test solutions prepared from 10′000 ppm DMSO stock solutions. After drying the leaf discs were infested with five L1 larvae. The samples were assessed for mortality, anti-feeding effect, and growth inhibition in comparison to untreated samples 3 days after infestation. Control of Spodoptera littoralis by a test sample is given when at least one of the categories mortality, anti-feedant effect, and growth inhibition is higher than the untreated sample.

[7] abbreviates: application rate of 200 ppm, feeding/contact, population of mixed ages, 6 days after infestation, read-out: mortality.
Setting [8] is: application rate of 200 ppm, L1 larvae, 3 days after infestation.

Where two headings read alike, the source gives them in different places. Some results are limits rather than exact numbers.

On to `CCSc1cc(NC(=O)C2CC2)cnc1-c1nnc(-c2cc(C(F)(F)F)ccn2)n1C` [A1, N-[5-ethylsulfanyl-6-[4-methyl-5-[4-(trifluoromethyl)-2-pyridyl]-1,2,4-triazol-3-yl]-3-pyridyl]cyclopropanecarboxamide], for which the mortality at 200 ppm in data set [1] (setting [7]) is no less than 80%.

As for `CCS(=O)(=O)c1cc(C=O)cnc1-c1nnc(-c2cc(C(F)(F)F)ccn2)n1C` [A3, 5-ethylsulfonyl-6-[4-methyl-5-[4-(trifluoromethyl)-2-pyridyl]-1,2,4-triazol-3-yl]pyridine-3-carbaldehyde], the mortality at 200 ppm in data set [1] (setting [7]) was no less than 80%. In addition, in data set [2], the mortality at 24 ppm is no less than 80%.

With `CCS(=O)(=O)c1cc(C(C)=O)cnc1-c1nnc(-c2cc(C(F)(F)F)ccn2)n1C` [A4, 1-[5-ethylsulfonyl-6-[4-methyl-5-[4-(trifluoromethyl)-2-pyridyl]-1,2,4-triazol-3-yl]-3-pyridyl]ethanone], the mortality at 24 ppm in data set [2] is no less than 80%.

Regarding `CCS(=O)(=O)c1ccc(NC2CC2)nc1-c1nnc(-c2cc(C(F)(F)F)ccn2)n1C` [A5, N-cyclopropyl-5-ethylsulfonyl-6-[4-methyl-5-[4-(trifluoromethyl)-2-pyridyl]-1,2,4-triazol-3-yl]pyridin-2-amine], in data set [1] (setting [7]), the mortality at 200 ppm was no less than 80%. The same compound yielded a mortality at 24 ppm in data set [2] of no less than 80%.

For the compound `CCS(=O)(=O)c1ccc(N(C)C(=O)C2CC2)nc1-c1nnc(-c2cc(C(F)(F)F)ccn2)n1C` [A8, N-[5-ethylsulfonyl-6-[4-methyl-5-[4-(trifluoromethyl)-2-pyridyl]-1,2,4-triazol-3-yl]-2-pyridyl]-N-methyl-cyclopropanecarboxamide], the mortality at 200 ppm in data set [3], in data set [1] (setting [7]) and in data set [6] (setting [8]) was no less than 80% in each case. In addition, the percent effect (mortality or growth inhibition) at 200 ppm in data set [4] and in data set [5] was no less than 80% each time. Besides, the mortality at 24 ppm in data set [2] is no less than 80%.

With `CCS(=O)(=O)c1cc(N(C)C2CC2)cnc1-c1nnc(-c2cc(C(F)(F)F)ccn2)n1C` [A10, N-cyclopropyl-5-ethylsulfonyl-N-methyl-6-[4-methyl-5-[4-(trifluoromethyl)-2-pyridyl]-1,2,4-triazol-3-yl]pyridin-3-amine], the mortality at 200 ppm in data set [1] (setting [7]) and in data set [6] (setting [8]) was no less than 80% throughout.

`CCS(=O)(=O)c1ccc(N(C)C2CC2)nc1-c1nnc(-c2cc(C(F)(F)F)ccn2)n1C` [A11, N-cyclopropyl-5-ethylsulfonyl-N-methyl-6-[4-methyl-5-[4-(trifluoromethyl)-2-pyridyl]-1,2,4-triazol-3-yl]pyridin-2-amine]: the mortality at 200 ppm in data set [1] (setting [7]) was no less than 80%. This compound also gave a mortality at 24 ppm in data set [2] of no less than 80%.

Turning to `CCS(=O)(=O)c1cc(N(C)S(C)(=O)=O)cnc1-c1nnc(-c2cc(C(F)(F)F)ccn2)n1C` [A12, N-[5-ethylsulfonyl-6-[4-methyl-5-[4-(trifluoromethyl)-2-pyridyl]-1,2,4-triazol-3-yl]-3-pyridyl]-N-methyl-methanesulfonamide], in data set [1] (setting [7]), the mortality at 200 ppm was no less than 80%. Besides, the mortality at 24 ppm in data set [2] is no less than 80%.

In the case of `CCS(=O)(=O)c1cc(NS(C)(=O)=O)cnc1-c1nnc(-c2cc(C(F)(F)F)ccn2)n1C` [A14, N-[5-ethylsulfonyl-6-[4-methyl-5-[4-(trifluoromethyl)-2-pyridyl]-1,2,4-triazol-3-yl]-3-pyridyl]methanesulfonamide], the melting point was 228 to 230 °C.

`CCS(=O)(=O)c1cc(C(=O)N(C)C2CC2)cnc1-c1nnc(-c2cc(C(F)(F)F)ccn2)n1C` [A16, N-cyclopropyl-5-ethylsulfonyl-N-methyl-6-[4-methyl-5-[4-(trifluoromethyl)-2-pyridyl]-1,2,4-triazol-3-yl]pyridine-3-carboxamide] returned a melting point of 235 to 237 °C.

Consider `CCS(=O)(=O)c1ccc(C(=O)NC2CC2)nc1-c1nnc(-c2cc(C(F)(F)F)ccn2)n1C` [A19, N-cyclopropyl-5-ethylsulfonyl-6-[4-methyl-5-[4-(trifluoromethyl)-2-pyridyl]-1,2,4-triazol-3-yl]pyridine-2-carboxamide], for which the mortality at 200 ppm in data set [3] and in data set [1] (setting [7]) was no less than 80% throughout. This compound also yielded a mortality at 24 ppm in data set [2] of no less than 80%.

For `CCS(=O)(=O)c1cc(NC2(C#N)CC2)cnc1-c1nnc(-c2cc(C(F)(F)F)ccn2)n1C` [A22, 1-[[5-ethylsulfonyl-6-[4-methyl-5-[4-(trifluoromethyl)-2-pyridyl]-1,2,4-triazol-3-yl]-3-pyridyl]amino]cyclopropanecarbonitrile], the mortality at 24 ppm in data set [2] is no less than 80%.

In data set [2], `CCS(=O)(=O)c1cc(N/C=N/OC)cnc1-c1nnc(-c2cc(C(F)(F)F)ccn2)n1C` [A24, N-[5-ethylsulfonyl-6-[4-methyl-5-[4-(trifluoromethyl)-2-pyridyl]-1,2,4-triazol-3-yl]-3-pyridyl]-N′-methoxy-formamidine] gave a mortality at 24 ppm of no less than 80%.

`CCS(=O)(=O)c1cc(N(C)/C=N/OC)cnc1-c1nnc(-c2cc(C(F)(F)F)ccn2)n1C` [A25, N-[5-ethylsulfonyl-6-[4-methyl-5-[4-(trifluoromethyl)-2-pyridyl]-1,2,4-triazol-3-yl]-3-pyridyl]-N′-methoxy-N-methyl-formamidine]: the mortality at 200 ppm in data set [1] (setting [7]) is no less than 80%. The compound further yielded a mortality at 24 ppm in data set [2] of no less than 80%.

Regarding `CCS(=O)(=O)c1ccc(N(CC(F)(F)F)C(=O)C2CC2)nc1-c1nnc(-c2cc(C(F)(F)F)ccn2)n1C` [A29, N-[5-ethylsulfonyl-6-[4-methyl-5-[4-(trifluoromethyl)-2-pyridyl]-1,2,4-triazol-3-yl]-2-pyridyl]-N-(2,2,2-trifluoroethyl)cyclopropanecarboxamide], the mortality at 200 ppm in data set [3], in data set [1] (setting [7]) and in data set [6] (setting [8]) was no less than 80% throughout. For the same compound, the percent effect (mortality or growth inhibition) at 200 ppm in data set [4] and in data set [5] was no less than 80% throughout.

For `CCS(=O)(=O)c1cc(N(C)N(C)C(=O)C2CC2)cnc1-c1nnc(-c2cc(C(F)(F)F)ccn2)n1C` [A31, N′-[5-ethylsulfonyl-6-[4-methyl-5-[4-(trifluoromethyl)-2-pyridyl]-1,2,4-triazol-3-yl]-3-pyridyl]-N,N′-dimethyl-cyclopropanecarbohydrazide], in data set [1] (setting [7]), the mortality at 200 ppm was no less than 80%. Moreover, the mortality at 24 ppm in data set [2] was no less than 80%.

On to `CCS(=O)(=O)c1cc(N)cnc1-c1nnc(-c2cc(C(F)(F)F)ccn2)n1C` [A35, 5-ethylsulfonyl-6-[4-methyl-5-[4-(trifluoromethyl)-2-pyridyl]-1,2,4-triazol-3-yl]pyridin-3-amine], for which the mortality at 200 ppm in data set [1] (setting [7]) was no less than 80%.

`CCS(=O)(=O)c1ccc(N(C)C(=O)OC(C)(C)C)nc1-c1nnc(-c2cc(C(F)(F)F)ccn2)n1C` [A38, Tert-Butyl N-[5-ethylsulfonyl-6-[4-methyl-5-[4-(trifluoromethyl)-2-pyridyl]-1,2,4-triazol-3-yl]-2-pyridyl]-N-methyl-carbamate]: the percent control (mortality or growth inhibition) at 200 ppm in data set [4] and in data set [5] was no less than 80% each time. The mortality at 200 ppm in data set [1] and in data set [6] was no less than 80% each time.

`CCS(=O)(=O)c1cc(N(C)C(=O)OC(C)(C)C)cnc1-c1nnc(-c2cc(C(F)(F)F)ccn2)n1C` [A39, Tert-Butyl N-[5-ethylsulfonyl-6-[4-methyl-5-[4-(trifluoromethyl)-2-pyridyl]-1,2,4-triazol-3-yl]-3-pyridyl]-N-methyl-carbamate]: the percent control (mortality or growth inhibition) at 200 ppm in data set [4] and in data set [5] was no less than 80% in each case. Moreover, in data set [6], the mortality at 200 ppm is no less than 80%.

Regarding `CCS(=O)(=O)c1ccc(NC)nc1-c1nnc(-c2cc(C(F)(F)F)ccn2)n1C` [A41, 5-ethylsulfonyl-N-methyl-6-[4-methyl-5-[4-(trifluoromethyl)-2-pyridyl]-1,2,4-triazol-3-yl]pyridin-2-amine], the mortality at 200 ppm in data set [1] (setting [7]) was no less than 80%. The compound also came in with a mortality at 24 ppm in data set [2] of no less than 80%.
